ChEMBL document CHEMBL4431298 (Medchemcomm, 2016)
Each block holds one compound with its values, some of them ahead of it. Activity calls are given as the source filed them. The rule behind the calls is not given here.

What was measured:
Format in all cases: cell-based
[1] = molecular target: T1, Ferroportin (Homo sapiens, UniProt Q9NP59); test: (§1) Inhibition of recombinant human SLC40A1 expressed in human T-REx-293 cells assessed as reduction in ferroportin internalization incubated for 20 hrs by luciferase reporter gene assay
T1 sequence (Q9NP59 whole entry): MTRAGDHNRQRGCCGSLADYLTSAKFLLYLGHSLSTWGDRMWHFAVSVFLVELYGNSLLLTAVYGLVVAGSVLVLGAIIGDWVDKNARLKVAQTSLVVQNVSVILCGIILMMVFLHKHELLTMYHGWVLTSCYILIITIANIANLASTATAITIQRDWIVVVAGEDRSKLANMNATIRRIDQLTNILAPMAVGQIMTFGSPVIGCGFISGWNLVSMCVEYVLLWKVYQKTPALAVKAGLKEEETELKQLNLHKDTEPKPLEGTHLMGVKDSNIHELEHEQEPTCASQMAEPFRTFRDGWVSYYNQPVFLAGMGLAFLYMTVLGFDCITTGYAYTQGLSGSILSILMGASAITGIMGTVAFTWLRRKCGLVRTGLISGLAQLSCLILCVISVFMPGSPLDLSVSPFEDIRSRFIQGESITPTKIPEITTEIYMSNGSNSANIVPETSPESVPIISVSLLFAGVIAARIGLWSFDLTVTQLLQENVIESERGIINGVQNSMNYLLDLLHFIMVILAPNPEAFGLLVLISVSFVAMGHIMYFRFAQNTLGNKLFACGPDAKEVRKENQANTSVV

[2] = molecular target: T1, Ferroportin; test: Inhibition of human GFP-tagged SLC40A1 expressed in HEK293 cells assessed as ferroportin internalization by fluorescence microscopic analysis
[3] = molecular target: T2, Ferroportin (Homo sapiens) (UniProt Q9NP59); test: Binding affinity to recombinant human C-terminal nano luciferase-tagged SLC40A1 expressed in human T-REx-293 cells assessed as internalization of compound-ferroportin conjugate at 0.0001 to 0.01 mg/ml incubated for 20 hrs measured at 549 nanometer by Hoechst staining based cellomics arrayscan imaging analysis
T2 sequence (whole entry): T1 sequence (Q9NP59 whole entry)

[4] = molecular target: T2, Ferroportin (Homo sapiens); test: as §1
[5] = molecular target: T1, Ferroportin; test: (§2) Inhibition of recombinant human C-terminal nano luciferase-tagged SLC40A1 expressed in human T-REx-293 cells assessed as ferroportin internalization incubated for 20 hrs measured at 459 nanometer by Hoechst staining based cellomics arrayscan imaging analysis
[6] = molecular target: T2, Ferroportin (Homo sapiens); test: as §2
[7] = molecular target: T2, Ferroportin (Homo sapiens); test: Inhibition of recombinant human SLC40A1 expressed in human T-REx-293 cells exposed to >4 hrs of doxycycline induction assessed as reduction in ferroportin internalization incubated for 20 hrs by luciferase reporter gene assay relative to control; details: concentration not given here
[8] = molecular target: T2, Ferroportin (Homo sapiens); test: Inhibition of recombinant human C-terminal nano luciferase-tagged SLC40A1 expressed in human T-REx-293 cells assessed as decrease in 55Fe-apotransferrin export at 10 uM preincubated for 24 hrs followed by export buffer and compound addition measured after 5 mins by scintillation counting method
[9] = molecular target: T2, Ferroportin (Homo sapiens); test: Inhibition of recombinant human SLC40A1 expressed in human T-REx-293 cells exposed to 4 hrs of doxycycline induction assessed as reduction in ferroportin internalization incubated for 20 hrs by luciferase reporter gene assay relative to control; details: concentration not given here

Structure (SMILES): CC[C@H](C)[C@H](NC(=O)[C@H](CS)NC(=O)[C@@H](NC(=O)[C@@H]1CCCN1C(=O)[C@H](Cc1ccccc1)NC(=O)[C@H](Cc1cnc[nH]1)NC(=O)[C@@H](NC(=O)[C@H](CC(=O)O)NC(C)=O)[C@@H](C)O)[C@@H](C)CC)C(=O)N[C@@H](Cc1ccccc1)C(=O)O
- IC50 [2]: 76 nM

Structure (SMILES): CCCCCCCCCCCCCCCC(=O)NCCCOCCOCCOCCCNC(=O)C[C@H](Cc1ccccc1)NC(=O)[C@H](CCCNC(=N)N)NC(=O)[C@@H](CS)NC(=O)[C@H](CCCNC(=N)N)NC(=O)C[C@@H]1CCCN1C(=O)[C@@H](NC(=O)[C@H](Cc1c[nH]cn1)NC(=O)[C@@H](NC(=O)CNCC(=O)O)[C@@H](C)O)C(c1ccccc1)c1ccccc1
- inhibition [4]: Dose-dependent effect

Structure (SMILES): CCCCCCCCCCCCCCCC(=O)NCCCOCCOCCOCCCNC(=O)C[C@H](Cc1ccccc1)NC(=O)[C@H](CCCNC(=N)N)NC(=O)[C@H](CS)NC(=O)[C@H](CCCNC(=N)N)NC(=O)C[C@@H]1CCCN1C(=O)[C@@H](NC(=O)[C@H](Cc1c[nH]cn1)NC(=O)[C@@H](NC(=O)CNCC(=O)O)[C@@H](C)O)C(c1ccccc1)c1ccccc1
- EC50 [1]: 21 nM

More lines, now with the values ahead:

- EC50 [1]: 22 nM
Structure (SMILES): CC[C@H](C)[C@@H]1NC(=O)[C@@H](NC(=O)[C@@H](NC(=O)[C@@H]2CCCN2C(=O)[C@H](Cc2ccccc2)NC(=O)[C@H](Cc2c[nH]cn2)NC(=O)[C@@H](NC(=O)[C@@H](N)CC(=O)O)[C@@H](C)O)[C@@H](C)CC)CSSC[C@@H](C(=O)N[C@@H](CCCCN)C(=O)N[C@H](C(=O)O)[C@@H](C)O)NC(=O)[C@@H]2CSSC[C@@H]3NC(=O)[C@@H]4CSSC[C@H](NC(=O)[C@H](Cc5ccccc5)NC1=O)C(=O)N[C@@H](CSSC[C@H](NC(=O)[C@H](CCCCN)NC(=O)[C@H](CO)NC(=O)[C@H](CCCNC(=N)N)NC(=O)[C@H](Cc1c[nH]cn1)NC3=O)C(=O)NCC(=O)N[C@@H](CCSC)C(=O)N2)C(=O)NCC(=O)N4

- Activity [3]: Active
- EC50 [1]: 347 nM
- inhibition [4]: Dose-dependent effect
- EC50 [5]: 1860 nM
- inhibition [6]: Dose-dependent effect
Structure (SMILES): CC[C@H](C)[C@H](NC(=O)[C@H](CS)NC(=O)[C@@H](NC(=O)[C@@H]1CCCN1C(=O)[C@H](Cc1ccccc1)NC(=O)[C@H](Cc1c[nH]cn1)NC(=O)[C@@H](NC(=O)[C@H](CC(=O)O)NC(C)=O)[C@@H](C)O)[C@@H](C)CC)C(=O)N[C@@H](Cc1ccccc1)C(=O)NCCOCCOCCOCC(=O)N[C@H](CCCNC(=N)N)C(=O)N[C@H](CCCNC(=N)N)C(=O)N[C@H](CCCCNC(=O)CCCCCNC(=O)CCC1=C(C)C2=Cc3ccc(-c4ccc(OC)cc4)n3[B-](F)(F)[N+]2=C1C)C(=O)O

- inhibition [7]: 25%
- inhibition [8]: Active
- inhibition [9]: 50%
- inhibition [4]: Dose-dependent effect
Structure (SMILES): CC[C@H](C)[C@@H]1NC(=O)[C@H](NC(=O)[C@@H](NC(=O)[C@@H]2CCCN2C(=O)[C@H](Cc2ccccc2)NC(=O)[C@H](Cc2cnc[nH]2)NC(=O)[C@@H](NC(=O)[C@@H](N)CC(=O)O)[C@@H](C)O)[C@@H](C)CC)CSSC[C@@H](C(=O)N[C@@H](CCCCN)C(=O)N[C@H](C(=O)O)[C@@H](C)O)NC(=O)[C@@H]2CSSC[C@@H]3NC(=O)[C@@H]4CSSC[C@H](NC(=O)[C@H](Cc5ccccc5)NC1=O)C(=O)N[C@@H](CSSC[C@H](NC(=O)[C@H](CCCCN)NC(=O)[C@H](CO)NC(=O)[C@H](CCCNC(=N)N)NC(=O)[C@H](Cc1cnc[nH]1)NC3=O)C(=O)NCC(=O)N[C@@H](CCSC)C(=O)N2)C(=O)NCC(=O)N4
